Experimental data reported in ChEMBL document CHEMBL1142074, “In vitro activities of cloxyquin (5-chloroquinolin-8-ol) against Mycobacterium tuberculosis” (2007).

Columns and labels:
Assay type in all cases: functional
[1] = test system: Mycobacterium tuberculosis; assay: Antimycobacterial activity against thiacetazone-resistant Mycobacterium tuberculosis H37Rv ATCC 35829 by microplate alamar blue assay
[2] = test system: Mycobacterium tuberculosis; assay: Antimycobacterial activity against ethionamide-resistant Mycobacterium tuberculosis H37Rv ATCC 35830 by microplate alamar blue assay
[3] = test system: Mycobacterium tuberculosis; assay: Antimycobacterial activity against pyrazinamide-resistant Mycobacterium tuberculosis H37Rv ATCC 35828 by microplate alamar blue assay
[4] = test system: Mycobacterium tuberculosis; assay: Antimycobacterial activity against cycloserine-resistant Mycobacterium tuberculosis H37Rv ATCC 35826 by microplate alamar blue assay
[5] = test system: Mycobacterium tuberculosis; assay: Antimycobacterial activity against kanamycin-resistant Mycobacterium tuberculosis H37Rv ATCC 35827 by microplate alamar blue assay
[6] = test system: Mycobacterium tuberculosis; assay: Antimycobacterial activity against ethambutol-resistant Mycobacterium tuberculosis H37Rv ATCC 35837 by microplate alamar blue assay

Measured: MIC

Oc1ccc(Cl)c2cccnc12 [CLOXYQUIN]
0.125 µg/mL: all assays above
